One data set has as its system HCV Replicon RNA. Kind of data set: HCV Replicon Assay (Huh 7 Clone B cells). Format: cell-based. The settings on record: tested at 10 μM, five days. From the text: (§1) Agents Chemother. […] K., Otto, M. J., Schinazi, R. F. “Antiviral activities and cellular toxicities of modified 2′,3′-dideoxy-2′,3′-didehydrocytidine analogs” Antimicrob. Agents Chemother. 2002, 46, 3854-60. • ^cHSV-1 drug susceptibility assay was done as previously described in: Schinazi, R. F., Peters, J., Williams, C. C., Chance, D., Nahmias, A. J. “Effect of combinations of acyclovir with vidarabine or its 5′-monophosphate on herpes simplex virus in cell culture and in mice.” Antimicrob. Agents Chemother. 1982, 22, 499-507. • ^dHCV Replicon Assay^1: Huh 7 Clone B cells containing HCV Replicon RNA were seeded in a 96-well plate at 5000 cells/well, and the compounds were tested at 10 μM in triplicate immediately after seeding. Following five days incubation (37° C., 5% CO2), total cellular RNA was isolated by using versaGene RNA purification kit from Gentra. Replicon RNA and an internal control (TaqMan rRNA control reagents, Applied Biosystems) were amplified in a single step multiplex Real Time RT-PCR Assay. The antiviral effectiveness of the compounds was calculated by subtracting the threshold RT-PCR cycle of the test compound from the threshold RT-PCR cycle of the no-drug control (ΔCtHCV). A ΔCt of 3.3 equals a 1-log reduction (equal to 90% less starting material) in Replicon RNA levels. The cytotoxicity of the compounds was also calculated by using the ΔCt rRNA values. 77 (2′-Me-C) was used as the control. To determine EC90 and IC50 values^2, ΔCt: values were first converted into fraction of starting material^3 and then were used to calculate the % inhibition.
In general terms: A replicon is a self-replicating genome or part of one, used to study replication in cells.

For the next data set, the system named is Vero cells. The data set can be described thus: Cytotoxicity assay in Vero cells. Format: cell-based.
The subject of another data set is CEM cells. The data set can be described thus: Cytotoxicity assay in CEM cells. Format: cell-based, human.
Data set [1] has as its system PBM cells. Kind of data set: Cytotoxicity assay in PBM cells. Format: cell-based, human.
A further data set deals with HBV. The data set can be described thus: Anti-HBV assay (AD-38 cell line). Format: cell-based. The settings on record: Hepatitis B virus. Here is the method:
The anti-HBV activity of the compounds was determined by treating the AD-38 cell line carrying wild type HBV under the control of tetracycline (see Ladner S. K., Otto M. J., Barker C. S., Zaifert K., Wang G. H., Guo J. T., Seeger C. & King R. W. Antimicrob. Agents Chemother. 1997, 41, 1715-20). Removal of tetracycline from the medium [Tet (−)] results in the production of HBV. The levels of HBV in the culture supernatant fluids from cells treated with the compounds were compared with that of the untreated controls. Control cultures with tetracycline [Tet (+)] were also maintained to determine the basal levels of HBV expression.

The subject of another data set is HIV-2/pROD10. Kind of data set: HIV-2 drug susceptibility in PBM cells. Format: cell-based. The settings on record: Human immunodeficiency virus 2, PBMC.
For a further data set, the system named is MT-2 cells. The data set can be described thus: Intracellular nucleotides formed in MT-2 cells. Format: in vitro ADME.
In data set [2] the test system is PBM cells. The note with it: human, 4 h, 50 μM.
For another data set, the system named is adenosine deaminase. The data set can be described thus: Adenosine deaminase assay (deamination of nucleosides). Format: in vitro ADME. The settings on record: 50 μM, pH 7.4. Here is the method: In order to determine if these 6-substituted compounds are converted to G analogs by the enzyme adenosine deaminase, a series of enzyme kinetics experiments were undertaken.
To determine the propensity for deamination of the APN nucleosides by adenosine deaminase, nucleoside compounds were incubated with the commercially available purified enzyme, and the reaction was followed spectrophotometrically. Reaction conditions were 50 mM potassium phosphate, pH 7.4, with 50 μM APN nucleoside in 0.5 mL at 25° C. Reaction time was 7 minutes with 0.002 units of enzyme and 120 minutes with 0.2 units of enzyme. (The unit definition of adenosine deaminase is one unit will deaminate 1.0 μmol of adenosine to inosine per minute at pH 7.5 at 25° C.) Deoxyadenosine was the positive control which was 59% deaminated under the given conditions in 7 minutes with 0.002 units of enzyme. Deoxyguanosine was the negative control. Optical density was measured at 265 nm or 285 nm. The difference in optical density between the beginning and the end of the experiment was divided by the extinction coefficient then multiplied by the volume of the reaction to determine the number of mols of substrate transformed into product. Mols of product were divided by mols of substrate equivalent to a 100% complete reaction then multiplied by 100 to obtain percent deamination. The limit of detection was 0.001 optical density units.

The next data set deals with HIV-1/LAI. The data set can be described thus: Anti-HIV-1 assay in PBM cells. Format: cell-based. The settings on record: Human immunodeficiency virus 1, PBMC, Tables 2-4, n = 3 for the MP prodrugs. As for the experimental part: Stock solutions (20-40 mM) of the compounds were prepared in sterile DMSO and then diluted to the desired concentration in growth medium. Cells were infected with the prototype HIV-1LAI at a multiplicity of infection of 0.01. Virus obtained from the cell supernatant was quantified on day 6 after infection by a reverse transcriptase assay using (rA)n·(dT)12-18 as template-primer. […] The antiviral EC50 and EC90 were obtained from the concentration-response curve using the median effective method described previously (see Chou T.-C. & Talalay P. Adv. Enzyme Regul. 1984, 22, 27-55; Belen'kii M. S. & Schinazi R. F. Antiviral Res. 1994, 25, 1-11).

In the next data set the test system is HSV-1. The data set can be described thus: HSV-1 drug susceptibility assay. Format: cell-based. The settings on record: Human alphaherpesvirus 1.
Excerpt: as §1

Setting [3] is: Chlorocebus sabaeus, Vero, Table 5, read-out: Toxicity IC50 Vero.
Setting [4] is: Homo sapiens, CCRF-CEM, Table 5, read-out: Toxicity IC50 CEM.
Where [5] appears, read: Homo sapiens, PBMC, Table 5, read-out: Toxicity IC50 PBM.
The mark [6] stands for this setting: Hepatitis C virus, Huh-7, 120 h.

Structures are written as SMILES. Like-named read-outs stand apart in the source and are kept apart here.

In general, EC50 refers to the concentration giving half of the maximal effect. For orientation: EC90 means the concentration at which the effect reaches the 90% level. As a reminder, the IC50 is the concentration that gives 50% inhibition. For the molecule `C[C@@]1(O)[C@H](O)[C@@H](CO)O[C@H]1n1ccc(N)nc1=O` [2′-Me—C, reference compound], the EC50 with HCV Replicon RNA was found to be 1.3 µM. Besides, the EC90 in the data set on HCV Replicon RNA worked out at 5.4 µM. Further, the IC50 with Vero cells (Table 5, read-out: Toxicity IC50 Vero) is more than 100 µM; with CEM cells (Table 5, read-out: Toxicity IC50 CEM), 24.5 µM; in the data set on PBM cells [1] (Table 5, read-out: Toxicity IC50 PBM), 29.4 µM.
Consider `Nc1ccn([C@H]2CS[C@@H](CO)O2)c(=O)n1` [Compound 3TC, (−)-2′,3′-dideoxy-3′-thiacytidine, reference compound], for which the IC50 in the data set with Vero cells (setting [3]), in the data set on CEM cells (setting [4]) and in the data set on PBM cells [1] (setting [5]) was more than 100 µM in each case. For the same molecule, the 90% effect concentration (EC90) with HBV is less than 10 µM; in the data set on HIV-2/pROD10 it was 0.42 µM. This molecule registered an EC50 in the data set on HIV-2/pROD10 of 0.075 µM.
Take `[N-]=[N+]=NC1C[C@H](n2cnc3c(O)nc(N)nc32)O[C@@H]1CO` (stereo partly drawn) [Compound 56, 3′-Azido-2′,3′-dideoxyguanosine]: the “concentration at which phosphorylation reaches steady state” value in the data set on MT-2 cells (MT-2, four different concentrations) turned out to be 30 µM. Moreover, in the data set with PBM cells [2], the major metabolite result is on record as “RFS-457-TP as the major metabolite”.
`[N-]=[N+]=N[C@H]1C[C@H](n2cnc3c(Cl)nc(N)nc32)O[C@@H]1CO` [Compound 68, ((2S,3S,5R)-5-(2-amino-6-chloro-9H-purin-9-yl)-3-azidotetrahydrofuran-2-yl)methanol]: the “level of unchanged drug” value with MT-2 cells (MT-2 cells treated with drug for 30 min) is recorded as “Negligible levels of 6415 were detected”. For the same molecule, the “AZG-TP levels compared with AZG treatment” value with MT-2 cells (MT-2 cells, 4 hr at 50 μM) is recorded as “higher”. For the same molecule, in the data set with PBM cells [2], the “nucleotides detected (LC/MS)” value is “detection of RFS-457-TP” and the “species not detected (LC/MS)” value is “Neither Compound 6415 nor its phosphates were detected”. Also, the “Deamination in 7 min (0.002 units Adenosine Deaminase)” value in the data set with adenosine deaminase (7 min) was determined as 12.81 ± 1.57%. Besides, in the data set on adenosine deaminase (120 min), the “Deamination in 120 min (0.2 units Adenosine Deaminase)” value was 240.53 ± 5.86%.
As to `CCOC(=O)[C@H](C)NP(=O)(OC[C@H]1O[C@@H](n2cnc3c(Cl)nc(N)nc32)CC1N=[N+]=[N-])Oc1ccccc1` (stereo partly drawn) [RS-784], the IC50 with Vero cells (Chlorocebus sabaeus, Vero, read-out: Vero IC50) is more than 100 µM; in the data set with CEM cells (Homo sapiens, CCRF-CEM, Tables 2-4, read-out: CEM IC50), 13.5 µM; with PBM cells [1] (Homo sapiens, PBMC, Tables 2-4, read-out: PBM IC50), 11.6 µM. Further, in the data set with HIV-1/LAI (read-out: HIV EC50), the EC50 amounted to 0.035 µM. In addition, the EC90 in the data set on HIV-1/LAI (read-out: HIV EC90) is 0.1 µM.
On to `C=CCNc1nc(N)nc2c1ncn2[C@H]1CC(N=[N+]=[N-])[C@@H](CO)O1` (stereo partly drawn) [drawing 47], for which the EC50 in the data set with HCV Replicon RNA (setting [6]) was more than 10 µM; with HSV-1, more than 100 µM. Besides, the figures for the EC90 with HCV Replicon RNA (setting [6]) and in the data set on HSV-1 were more than 10 µM and more than 100 µM, respectively. Besides, the IC50 in the data set with Vero cells (setting [3]), in the data set with CEM cells (setting [4]) and with PBM cells [1] (setting [5]) was more than 100 µM in each case.
Take `C=CCN(C)c1nc(N)nc2c1ncn2[C@H]1CC(N=[N+]=[N-])[C@@H](CO)O1` (stereo partly drawn) [drawing 48]: the EC50 in the data set with HCV Replicon RNA (setting [6]) is more than 10 µM; with HSV-1, more than 100 µM. Also, the values for the EC90 in the data set with HCV Replicon RNA (setting [6]) and in the data set on HSV-1 were more than 10 µM and more than 100 µM, respectively. The half-inhibitory concentration (IC50) with Vero cells (Chlorocebus sabaeus, Vero, read-out: Toxicity IC50 Vero) is 32 µM; with CEM cells (setting [4]) it was 27 µM; in the data set on PBM cells [1] (setting [5]) it was more than 100 µM.
Consider `[N-]=[N+]=NC1C[C@H](n2cnc3c(NCCCCCO)nc(N)nc32)O[C@@H]1CO` (stereo partly drawn) [drawing 49], for which the EC50 with HCV Replicon RNA (setting [6]) is more than 10 µM; in the data set on HSV-1 it was more than 100 µM. The EC90 in the data set with HCV Replicon RNA (setting [6]) was more than 10 µM; in the data set on HSV-1, more than 100 µM. Besides, the IC50 with Vero cells (setting [3]), in the data set on CEM cells (setting [4]) and with PBM cells [1] (setting [5]) was more than 100 µM in each case.
With `CC(C)(CO)Nc1nc(N)nc2c1ncn2[C@H]1CC(N=[N+]=[N-])[C@@H](CO)O1` (stereo partly drawn) [drawing 50], the EC50 in the data set on HCV Replicon RNA (setting [6]) was more than 10 µM; in the data set with HSV-1 it was more than 100 µM. Also, the EC90 in the data set on HCV Replicon RNA (setting [6]) was more than 10 µM; in the data set on HSV-1, more than 100 µM. For the same molecule, the IC50 with Vero cells (setting [3]), with CEM cells (setting [4]) and with PBM cells [1] (setting [5]) was more than 100 µM in each case.
Take `CC(CO)Nc1nc(N)nc2c1ncn2[C@H]1CC(N=[N+]=[N-])[C@@H](CO)O1` (stereo partly drawn) [drawing 51]: the EC50 is more than 10 µM with HCV Replicon RNA (setting [6]) and more than 100 µM with HSV-1. Further, the values for the EC90 in the data set with HCV Replicon RNA (setting [6]) and in the data set on HSV-1 were more than 10 µM and more than 100 µM, respectively. For the same molecule, the IC50 in the data set on Vero cells (setting [3]), with CEM cells (setting [4]) and in the data set with PBM cells [1] (setting [5]) was more than 100 µM in each case.
As for `CN(C)c1nc(N)nc2c1ncn2[C@H]1CC(N=[N+]=[N-])[C@@H](CO)O1` (stereo partly drawn) [drawing 53], the figures for the EC50 with HCV Replicon RNA (setting [6]) and in the data set with HSV-1 were more than 10 µM and more than 100 µM, respectively. Besides, the figures for the EC90 in the data set on HCV Replicon RNA (setting [6]) and in the data set on HSV-1 were more than 10 µM and more than 100 µM, respectively. The IC50 in the data set with Vero cells (setting [3]), with CEM cells (setting [4]) and in the data set with PBM cells [1] (setting [5]) was more than 100 µM each time.
As for `[N-]=[N+]=NC1C[C@H](n2cnc3c(NC4CC4)nc(N)nc32)O[C@@H]1CO` (stereo partly drawn) [drawing 56], the values for the EC50 in the data set on HCV Replicon RNA (setting [6]) and in the data set on HSV-1 were more than 10 µM and more than 100 µM, respectively. For the same molecule, the EC90 with HCV Replicon RNA (setting [6]) is more than 10 µM; in the data set with HSV-1, more than 100 µM. The IC50 with Vero cells (setting [3]), in the data set on CEM cells (setting [4]) and in the data set with PBM cells [1] (setting [5]) was more than 100 µM throughout.
Turning to `COCCNc1nc(N)nc2c1ncn2[C@H]1CC(N=[N+]=[N-])[C@@H](CO)O1` (stereo partly drawn) [drawing 58], the EC50 with HCV Replicon RNA (setting [6]) is more than 10 µM. Besides, the EC90 in the data set on HCV Replicon RNA (setting [6]) is more than 10 µM. Further, the IC50 with Vero cells (setting [3]), in the data set on CEM cells (setting [4]) and in the data set on PBM cells [1] (setting [5]) was more than 100 µM throughout.

These data come from patent US8815829B2, “3′-azido purine nucleotide prodrugs for treatment of viral infections” (priority 2008, dated 2014).
